Data on two compounds can be found in patent publication US20150065575A1, “S100A8/A9 as a Diagnostic Marker and a Therapeutic Target” (Sloan-Kettering Institute for Cancer Research, priority 2012, published 2015).

For one experiment, the system named is PMN. Particulars: similar potencies for both; cited from earlier work.
Experiment [1] deals with LM2 and CN34LM1 lung metastatic human breast cancer cell lines. Briefly: Preclinical trial of AC chemotherapy and CXCR2 antagonist in orthotopic lung metastatic breast cancer xenografts. The experiment is classed as in vivo, mice. As to the method: Data represent average expression±SEM. n=10-13 mice per group. P values were determined by Student's t-test. *p=0.02, **p=0.007.
Data are average foci per field of view (FOV)±SEM. n=5-10 mice per group. Whiskers represent minimum and maximum values. P values were determined by two-tailed Wilcoxon rank-sum test.
Tumor vessel characteristics and lung metastatic foci size and number were quantified using Metamorph software (Molecular Devices) as previously described (DeNardo et al., 2009; Gupta et al., 2007). In brief, 10 random images at 20× magnification were taken per tumor section stained with CD34, MECA32 or Von Willebrand factor by immunohistochemistry. Images were thresholded, stained area was calculated by counting objects per field and vessel characteristics were analyzed using Metamorph measurement module. For quantitating lung metastatic foci area and number, 8-12 random images at 20× magnification were taken per lung section stained with vimentin by immunohistochemistry. A minimum of 5 sections was analyzed per animal across different depths of the tissue. For quantitation, images were thresholded and number of metastatic foci determined. Metastatic foci was considered if they contained more than 5 cells. Foci were counted and analyzed using Metamorph measurement module. […]

Take `C[C@@H](C(N)=O)c1ccc(OS(=O)(=O)C(F)(F)F)cc1` [4-[(1R)-2-amino-1-methyl-2-oxoethyl]phenyl trifluoromethane sulfonate]: the “CXCL8- and CXCL1-mediated PMN chemotaxis” value in the experiment with PMN was “inhibit”.
For the compound `N#Cc1ccc(NC(=O)Nc2ccccc2Br)c2n[nH]nc12` [CXCR2 inhibitor], the lung metastatic burden result in experiment [1] (CXCR2 inhibitor combined with AC chemotherapy) is on record as “markedly reduced”. Besides, the “S100A9 expressing cells (immunostaining)” value in experiment [1] (CXCR2 inhibitor/chemotherapy treatment) is “significant reduction”.
